Test results taken from paper PMC7854751, “Estimation of radiation dose from ingested tritium in humans by administration of deuterium-labelled compounds and food” (Scientific Reports, 2021).
Where “and” joins values, the source holds several entries; their conditions need not be identical. Equal values may be shown once. Read-outs that look alike come from different tables or passages of the source. Marks after values point to notes of the source that are not given here.

How the values were obtained:
[1] = intravenous injection ref 28; cited from earlier work
[2] = D/H ratios in urine after oral administration of D-labelled compounds and soybean, OBD metabolic model fit; format: in vivo, human
Protocol: (§1) The total number of volunteers was 42, although some dropped out of the experiment, for various reasons. The data from these volunteers were eliminated. This study lasted 4 years; administration experiments were conducted from September to January, and each volunteer participated in one of the 4 years. […]
All D-labelled and ^13C-labelled compounds were purchased from Cambridge Isotopes, Inc. (Tewksbury). In each D-labelled molecule, hydrogen bound to carbon was uniformly replaced by D. Such D is not exchangeable to hydrogen in free body water after administration until it is metabolised to HDO, and is called non-exchangeable OBD (Nx-OBD). Exchangeable hydrogen, which was not bound to carbon, such as hydroxyl group hydrogen, was not replaced by D. In each ^13C-labelled compound, ^13C was uniformly labelled.
The D-labelled soybean was harvested three times. The harvested soybeans were boiled, freeze-dried, and then homogenised. The soy powder product was orally administered. To measure the D/H ratio, the soy powder was first immersed in drinking water, to replace exchangeable OBD (Ex-OBD), which was not bound to carbon. After the second freeze-drying process, the D/H ratio was measured using a mass spectrometer (Iso Prime 100; Elementar, Langenselbold, Germany). Buried tritium is defined as the tritium in a large biomolecule that remains in the molecule after rinsing samples with tritium-free water, despite its exchangeable position in the molecule. A fraction of buried deuterium was considered to remain in soybean powder. […] Therefore, we considered that effect of the amount of buried deuterium on the measured D/H ratio of soy powder was negligible. The hydrogen content of the soybean powders (gH/gDW) was measured using a gas chromatograph (NCH-22F; Sumika Chemical Analysis Service, Oosaka, Japan). The OBD content of the soybean powders (gOBD/gDW) were calculated from their D/H ratio and hydrogen content, and are summarised in Table 7.
(§2) Urine and breath samples were periodically collected from days − 7 to 119, where the first day of the administration was defined as day 0. Urine samples were collected daily, when the volunteers rose in the morning, until day 28, then every two or three days until day 119. Additional samples were collected frequently, after administration. Urine samples were collected at every urination until bedtime, on days of administration. Breath samples were collected immediately prior to the administration, every 20 min from 12:30 to 17:10, and then hourly from 18:00 until bedtime.
(§3) Urine was distilled, and the condensed water was collected for the measurement of D/H ratio, using a mass spectrometer (Iso Prime 100; Elementar, Langenselbold, Germany). Breath samples were collected using an airtight bag. The samples were analysed within 3 days. After purifying the CO2 in the breath using a gas chromatograph (MAT GC; Thermo Electron, Waltham, MA, USA), the ^13C/^12C ratio was measured using a mass spectrometer (Dalta V Advantage; Thermo Electron, Waltham, MA, USA).
(§4) The increments were calculated of D/H and ^13C/^12C ratios above the background values measured for the samples before administration. The ratios were normalised to the same dosage (1 g D or ^13C per 70 kg body weight). When the D/H or ^13C/^12C ratios were below the limits (90% upper confidence limits of the background fluctuation), to cut off the data and any subsequent data were discarded.
(§5) A metabolic model was developed, for each volunteer. For volunteers in the glucose, alanine, palmitic acid, and soybean groups, the model structure of the OBD shown in Fig. 1 was adopted, while for volunteers in the D2O group, the model structure for HDO was adopted. For each model, parameters were determined using the least squares method, using Microsoft Excel version 2007. The detailed procedures have been described previously. […]

[3] = design: method as in PMID 32424291; conditions: cited from earlier work; for d1, ratio of organic compounds to inorganic compounds immediately after administration: 13C-labelled compound experiments, mean ± standard deviation ref 31
[4] = design: method as in PMID 21947005; conditions: once orally; individual volunteer; presumed value, no clear second component; from mean residence time of carbon in adipose tissue ref 41; cited from earlier work
[5] = D/H ratios in urine after oral administration of D2O, HDO metabolic model fit; format: in vivo, human; conditions: for mean half-life for the FWD compartment of the HDO models: mean and standard deviation; for Rr, recovery ratio to the administered deuterium / k1, transfer rate from OBD compartment to FWD compartment / k2, transfer rate from FWD compartment to OBD compartment / ka, transfer rate from DT compartment to FWD compartment / ke, excretion rate from FWD compartment: once orally
Protocol: as §1, §2, §3, §4, §5

## O=[14C]([O-])O.[Na+] [^14C-bicarbonate]
[1]
  half-life of carbon dioxide: 5 min

## OC[C@H]1OC(O)[C@H](O)[C@@H](O)[C@@H]1O (stereo partly drawn) [D-labelled glucose]
[2]; once orally, all volunteers average
  ke, excretion rate from FWD compartment: 0.073 day⁻¹
[2]; once orally, female average
  ke, excretion rate from FWD compartment: 0.067 day⁻¹
[2]; once orally, individual female volunteers
  ke, excretion rate from FWD compartment: 0.072 d^−1 (2×) and 0.081 d^−1 and 0.057 d^−1 and 0.073 d^−1 and 0.049 d^−1
[2]; once orally, individual male volunteers
  ke, excretion rate from FWD compartment: 0.085 d^−1 (2×) and 0.097 d^−1 and 0.050 d^−1 and 0.078 d^−1
[2]; once orally, male average
  ke, excretion rate from FWD compartment: 0.079 day⁻¹

## CCCCCCCCCCCCCCCC(=O)O [D-labelled palmitic acid]
[2]; palmitic acid group, orally once daily for four successive days, all volunteers average
  ke, excretion rate from FWD compartment: 0.070 day⁻¹
[2]; palmitic acid group, orally once daily for four successive days, female average
  ke, excretion rate from FWD compartment: 0.083 day⁻¹
[2]; palmitic acid group, orally once daily for four successive days, individual female volunteers
  ke, excretion rate from FWD compartment: 0.059 day⁻¹ and 0.064 day⁻¹ and 0.11 day⁻¹ and 0.099 day⁻¹
[2]; palmitic acid group, orally once daily for four successive days, individual male volunteers
  ke, excretion rate from FWD compartment: 0.059 day⁻¹ and 0.055 day⁻¹ and 0.078 day⁻¹ and 0.063 day⁻¹ and 0.040 day⁻¹
[2]; palmitic acid group, orally once daily for four successive days, male average
  ke, excretion rate from FWD compartment: 0.059 day⁻¹

## NCC(=O)O [^13C-labelled glycine]
[3]
  d1, ratio of organic compounds to inorganic compounds immediately after administration: 0.29 ± 0.04

## N[C@@H](Cc1ccccc1)C(=O)O [^13C-labelled phenylalanine]
[3]
  d1, ratio of organic compounds to inorganic compounds immediately after administration: 0.25 ± 0.04

## CCCCCCCC/C=C\CCCCCCCC(=O)O [^13C-labelled oleic acid]
[3]
  d1, ratio of organic compounds to inorganic compounds immediately after administration: 0.35 ± 0.11
  reported ratio of unsaturated fatty acids (d1) by the 13C-labelled experiment: 35 ± 11%

## [2H]O[2H] [D2O]
[4]
  k2, transfer rate from FWD compartment to OBD compartment: 0.0017* d^−1
[5]; combined group of volunteers
  mean half-life for the FWD compartment of the HDO models: 240 ± 72 h
[5]; females (n = 6)
  mean half-life for the FWD compartment of the HDO models: 240 ± 72 h
[5]; males (n = 3)
  mean half-life for the FWD compartment of the HDO models: 240 ± 48 h
[5]; all volunteers average
  Rr, recovery ratio to the administered deuterium: 0.93
  k1, transfer rate from OBD compartment to FWD compartment: 0.010 day⁻¹
  k2, transfer rate from FWD compartment to OBD compartment: 0.010 day⁻¹
  ka, transfer rate from DT compartment to FWD compartment: 26 day⁻¹
  ke, excretion rate from FWD compartment: 0.071 day⁻¹
[5]; female average
  Rr, recovery ratio to the administered deuterium: 0.93
  k1, transfer rate from OBD compartment to FWD compartment: 0.011 day⁻¹
  k2, transfer rate from FWD compartment to OBD compartment: 0.013 day⁻¹
  ka, transfer rate from DT compartment to FWD compartment: 28 day⁻¹
  ke, excretion rate from FWD compartment: 0.071 day⁻¹
[5]; individual female volunteers
  Rr, recovery ratio to the administered deuterium: 1.0 and 0.99 and 0.70 and 0.97 (2×) and 0.93
  k1, transfer rate from OBD compartment to FWD compartment: 0.0067 day⁻¹ and 0.0074 day⁻¹ and 0.019 day⁻¹
  k2, transfer rate from FWD compartment to OBD compartment: 0.016 day⁻¹ and 0.010 day⁻¹
  ka, transfer rate from DT compartment to FWD compartment: 8.9 day⁻¹ and 23 day⁻¹ and 92 day⁻¹ and 14 day⁻¹ and 6.4 day⁻¹ and 21 day⁻¹
  ke, excretion rate from FWD compartment: 0.056 day⁻¹ and 0.098 day⁻¹ and 0.081 day⁻¹ and 0.043 day⁻¹ and 0.078 day⁻¹ and 0.072 day⁻¹
[5]; individual male volunteers
  Rr, recovery ratio to the administered deuterium: 0.91 and 1.0 and 0.92
  k1, transfer rate from OBD compartment to FWD compartment: 0.0091 day⁻¹ and 0.0083 day⁻¹
  k2, transfer rate from FWD compartment to OBD compartment: 0.0092 day⁻¹ and 0.0065 day⁻¹
  ka, transfer rate from DT compartment to FWD compartment: 39 day⁻¹ and 8.6 day⁻¹ and 21 day⁻¹
  ke, excretion rate from FWD compartment: 0.059 day⁻¹ and 0.063 day⁻¹ and 0.090 day⁻¹
[5]; male average
  Rr, recovery ratio to the administered deuterium: 0.94
  k1, transfer rate from OBD compartment to FWD compartment: 0.0087 day⁻¹
  k2, transfer rate from FWD compartment to OBD compartment: 0.0079 day⁻¹
  ka, transfer rate from DT compartment to FWD compartment: 23 day⁻¹
  ke, excretion rate from FWD compartment: 0.071 day⁻¹

## CCCCC/C=C\C/C=C\CCCCCCCC(=O)O [^13C-labelled linoleic acid]
[3]
  d1, ratio of organic compounds to inorganic compounds immediately after administration: 0.29 ± 0.12
  reported ratio of unsaturated fatty acids (d1) by the 13C-labelled experiment: 29 ± 12%
